This series in a line: Precipitation after preparation of lenalidomide compositions without glycol or polyol. Conditions: lenalidomide dissolved in an aqueous buffer at pH between 1.0 and 3.5; a few minutes. The class given is physicochemical. On the procedure:
A composition was prepared according to example 23 of WO 1998/03502. The solution contained 5.0 g lenalidomide, 22.5 g sodium chloride, 300.0 g phosphate buffer with pH 7.4 and demineralized water. The pH of the final composition was 7.4.
Similar results (i.e. precipitation) were obtained a few minutes after lenalidomide was dissolved in an aqueous buffer at pH between 1.0 and 3.5.
Likewise, attempts to prepare an oral solution by combining lenalidomide with any one of arginine, leucine, povidone K25, sodium lauryl sulfate, hydroxypropyl methylcellulose, poloxamer 20, in an aqueous buffer at pH 2.0 or pH 2.5 led to the formation of precipitate within minutes of the preparation of the compositions.

Here are results for 1 compound from US20250170115A1, “LENALIDOMIDE ORAL SOLUTION” (A FINE HOUSE S.A., priority 2021, published 2025).

`Nc1cccc2c1CN(C1CCC(=O)NC1=O)C2=O` (racemic) [Lenalidomide, 1-oxo-(2,6-dioxopiperidin-3-yl)-4-aminoisoindoline]: the precipitation after dissolution entry is recorded as “precipitation”.
